Structures are written as SMILES. pIC50: −log10 of the molar value.

The target in the experiment is T1, Human PPARα (Homo sapiens, UniProt Q07869).
T1 construct: host or cells: proprietary non-human mammalian cells
T1 sequence (Q07869 1-468): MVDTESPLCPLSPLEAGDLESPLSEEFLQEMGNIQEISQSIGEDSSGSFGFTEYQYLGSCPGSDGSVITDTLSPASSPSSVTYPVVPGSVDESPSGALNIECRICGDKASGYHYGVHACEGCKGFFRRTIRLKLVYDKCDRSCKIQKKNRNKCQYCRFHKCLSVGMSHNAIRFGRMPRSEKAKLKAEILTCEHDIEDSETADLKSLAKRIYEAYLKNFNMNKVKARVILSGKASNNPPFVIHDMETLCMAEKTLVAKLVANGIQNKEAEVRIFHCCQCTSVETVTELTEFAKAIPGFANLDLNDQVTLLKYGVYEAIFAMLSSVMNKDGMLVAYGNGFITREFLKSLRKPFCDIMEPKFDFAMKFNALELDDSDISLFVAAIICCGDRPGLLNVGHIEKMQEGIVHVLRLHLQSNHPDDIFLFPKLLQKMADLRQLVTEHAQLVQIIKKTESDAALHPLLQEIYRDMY
Nature of the experiment: Human PPARα Reporter Assay (luciferase). The experiment is classed as cell-based. The following applies: human PPARα reporter cells, overnight incubation, antagonism; read-out: Luciferase IC50. The method in brief:
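Agonist or antagonist activity read as luciferase light from engineered reporter cells carrying human PPARα and a responsive reporter gene. Cells got compound immediately on dispensing, incubated overnight, then treatment media swapped for luciferase detection reagent.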
In general terms: A reporter such as luciferase makes a cellular process visible.

Regarding `CCn1c(CCCc2ccc(-c3ccc(C)c(NS(=O)(=O)c4ccccc4)c3)cc2)nn(Cc2ccc(C(C)(C)C)cc2)c1=O` [Example 152, 1-{[4-(tert-Butyl)phenyl]methyl}-4-ethyl-3-[3-(4-{4-methyl-3-[(phenylsulfonyl)amino]phenyl}phenyl)propyl]-1,2,4-triazolin-5-one], the pIC50 was 6.80.

With `CCOc1ccc(-c2ccc(CCCc3nn(Cc4ccc(C(C)(C)C)cc4)c(=O)n3CC)cc2)cc1C1(C(=O)O)CC1` [Example 122, 1-(4′-(3-(1-(4-(tert-Butyl)benzyl)-4-ethyl-5-oxo-4,5-dihydro-1H-1,2,4-triazol-3-yl)propyl)-4-ethoxy-[1,1′-biphenyl]-3-yl)cyclopropanecarboxylic acid], the negative logarithm of the IC50 (pIC50) is 6.73.

For `CCn1c(CCCc2ccc(-c3ccc(NS(=O)(=O)Cc4ccccc4)c(C)n3)cc2)nn(Cc2ccc(C(C)(C)C)cc2)c1=O` [Example 125, 1-{[4-(tert-Butyl)phenyl]methyl}-4-ethyl-3-{3-[4-(6-methyl-5-{[benzylsulfonyl]amino}(2-pyridyl))phenyl]propyl}-1,2,4-triazolin-5-one], the negative-log IC50 (pIC50) was 6.45.

For `CC(C)(C)c1ccc(Cn2nc(CCCc3ccc(-c4ccc(C5(O)COC5)cc4)cc3)[nH]c2=O)cc1` [Example 167, 1-(4-(tert-Butyl)benzyl)-3-(3-(4%(3-hydroxyoxetan-3-yl)-[1,1′-biphenyl]-4-yl)propyl)-1H-1,2,4-triazol-5(4H)-one], the pIC50 is 6.34.

Take `CCn1c(CCCc2ccc(-c3ccc(OC)c(NS(=O)(=O)C4CC4)n3)cc2)nn(Cc2ccc(C(C)(C)C)cc2)c1=O` [Example 190, 1-{[4-(tert-Butyl)phenyl]methyl}-4-ethyl-3-[3-(4-{6-[(cyclopropylsulfonyl)amino]-5-methoxy(2-pyridyl)}phenyl)propyl]-1,2,4-triazolin-5-one]: the pIC50 was 7.92.

For `CCn1c(CCCc2ccc(-c3cccc(CC(=O)O)c3)cc2)nn(Cc2ccc(C3CCCCC3)cc2)c1=O` [Example 26, 2-(4′-(3-(1-(4-Cyclohexylbenzyl)-4-ethyl-5-oxo-4,5-dihydro-1H-1,2,4-triazol-3-yl)propyl)-[1,1′-biphenyl]-3-yl)acetic acid], the pIC50 was 5.39.

On to `CCn1c(CCCc2ccc(-c3cccc(C(=O)C(=O)NC4CC4)c3)cc2)nn(Cc2ccc(C(C)(C)C)cc2)c1=O` [Example 57, 2-(4′-(3-(1-(4-(tert-Butyl)benzyl)-4-ethyl-5-oxo-4,5-dihydro-1H-1,2,4-triazol-3-yl)propyl)-[1,1′-biphenyl]-3-yl)-N-cyclopropyl-2-oxoacetamide], for which the negative-log IC50 (pIC50) is 6.76.

`CCn1c(CCCc2ccc(-c3ccc(C4(F)COC4)cc3)cc2)nn(Cc2ccc(C(C)(C)C)cc2)c1=O` [Example 143, 1-(4-(tert-Butyl)benzyl)-4-ethyl-3-(3-(4%(3-fluorooxetan-3-yl)-[1,1′-biphenyl]-4-yl)propyl)-1H-1,2,4-triazol-5(4H)-one]: the pIC50 was 7.00.

On to `CCn1c(CCCc2ccc(-c3cccc(C(F)(F)C(=O)O)c3)cc2)nn(Cc2ccc(C(C)(C)C)cc2)c1=O` [Example 28, 2-(4′-(3-(1-(4-(tert-Butyl)benzyl)-4-ethyl-5-oxo-4,5-dihydro-1H-1,2,4-triazol-3-yl)propyl)-[1,1′-biphenyl]-3-yl)-2,2-difluoroacetic acid], for which the negative-log IC50 (pIC50) is 5.70.

As for `CCn1c(CCCc2ccc(-c3ccc(N)cn3)cc2)nn(Cc2ccc(C(C)(C)C)cc2)c1=O` [Example 5, 3-(3-(4-(5-Aminopyridin-2-yl)phenyl)propyl)-1-(4-(tert-butyl)benzyl)-4-ethyl-1H-1,2,4-triazol-5(4H)-one], the pIC50 is 7.37.

With `CCn1c(CCCc2ccc(-c3cnc(C4(F)COC4)s3)cc2)nn(Cc2ccc(C(C)(C)C)cc2)c1=O` [Example 202, 1-(4-(tert-Butyl)benzyl)-4-ethyl-3-(3-(4-(2-(3-fluorooxetan-3-yl)thiazol-5-yl)phenyl)propyl)-1H-1,2,4-triazol-5(4H)-one], the pIC50 is 7.29.

Take `CCn1c(CCCc2ccc(-c3ccc(OC(F)F)c(C(=O)O)c3)cc2)nn(Cc2ccc(C(C)(C)C)cc2)c1=O` [Example 121, 4′-(3-(1-(4-(tert-Butyl)benzyl)-4-ethyl-5-oxo-4,5-dihydro-1H-1,2,4-triazol-3-yl)propyl)-4-(difluoromethoxy)-[1,1′-biphenyl]-3-carboxylic acid]: the negative logarithm of the IC50 (pIC50) was 7.41.

With `CCn1c(CCCc2ccc(-c3cc(C)c(NS(=O)(=O)c4ccccc4)cn3)cc2)nn(Cc2ccc(C(C)(C)C)cc2)c1=O` [Example 126, 1-{[4-(tert-Butyl)phenyl]methyl}-4-ethyl-3-[3-(4-{4-methyl-5-[(phenylsulfonyl)amino](2-pyridyl)}phenyl)propyl]-1,2,4-triazolin-5-one], the pIC50 was 6.70.

Turning to `CCn1c(CCCc2ccc(-c3cccc(CC(=O)O)c3)cc2)nn(Cc2ccc(C(C)(C)C)c(C3CC3)c2)c1=O` [Example 85, 2-(4′-(3-(1-(3-Cyclopropyl-4-(tert-butyl)benzyl)-4-ethyl-5-oxo-4,5-dihydro-1H-1,2,4-triazol-3-yl)propyl)-[1,1′-biphenyl]-3-yl)acetic acid], the negative-log IC50 (pIC50) was 6.18.

Consider `CCn1c(CCCc2ccc(-c3cccc(CC(=O)O)c3)cc2)nn(Cc2ccc(C(C)(C)C)c(Br)c2)c1=O` [Example 67, 2-(4′-(3-(1-(3-Bromo-4-(tert-butyl)benzyl)-4-ethyl-5-oxo-4,5-dihydro-1H-1,2,4-triazol-3-yl)propyl)-[1,1′-biphenyl]-3-yl)acetic acid], for which the pIC50 was 7.06.

Consider `CCn1c(CCCc2ccc(-c3ccc(C)c(N)c3)cc2)nn(Cc2ccc(C(C)(C)C)cc2)c1=O` [Example 149, 3-(3-(3′-Amino-4′-methyl-[1,1′-biphenyl]-4-yl)propyl)-1-(4-(tert-butyl)benzyl)-4-ethyl-1H-1,2,4-triazol-5(4H)-one], for which the pIC50 is 6.79.

In the case of `CCn1c(CCCc2ccc(-c3ccc(CS(=O)(=O)NCc4ccccc4)cc3)cc2)nn(Cc2ccc(C(C)(C)C)cc2)c1=O` [Example 104, N-Benzyl-1-(4′-(3-(1-(4-(tert-butyl)benzyl)-4-ethyl-5-oxo-4,5-dihydro-1H-1,2,4-triazol-3-yl)propyl)-[1,1′-biphenyl]-4-yl)methanesulfonamide], the pIC50 is 6.23.

`CCOc1ccc(-c2ccc(CCCc3nn(Cc4ccc(C(C)(C)C)cc4)c(=O)n3C)cc2)cc1CC(=O)O` [Example 95, 2-(4′-(3-(1-(4-(tert-Butyl)benzyl)-4-methyl-5-oxo-4,5-dihydro-1H-1,2,4-triazol-3-yl)propyl)-4-ethoxy-[1,1′-biphenyl]-3-yl)acetic acid]: the negative-log IC50 (pIC50) is 7.82.

For `CCn1c(CCCc2ccc(-c3cc(CC(=O)O)cc(OC)c3)cc2)nn(Cc2ccc(C(C)(C)C)cc2)c1=O` [Example 194, 2-(3-{4-[3-(1-{[4-(tert-Butyl)phenyl]methyl}-4-ethyl-5-oxo(1,2,4-triazolin-3-yl))propyl]phenyl}-5-methoxyphenyl)acetic acid], the negative-log IC50 (pIC50) was 7.08.

Take `CCn1c(CCCc2ccc(-c3cccc(CC(=O)O)c3)cc2)nn(Cc2ccc(Br)cc2)c1=O` [Example 37, 2-(4′-(3-(1-(4-Bromobenzyl)-4-ethyl-5-oxo-4,5-dihydro-1H-1,2,4-triazol-3-yl)propyl)-[1,1′-biphenyl]-3-yl)acetic acid]: the pIC50 was 5.71.

Regarding `CCn1c(CCCc2ccc(-c3ccc(OC)c(NS(=O)(=O)c4ccc(OC)nc4)n3)cc2)nn(Cc2ccc(C(C)(C)C)cc2)c1=O` [Example 114, 1-{[4-(tert-Butyl)phenyl]methyl}-4-ethyl-3-{3-[4-(5-methoxy-6-{[(6-methoxy(3-pyridyl))sulfonyl]amino}(2-pyridyl))phenyl]propyl}-1,2,4-triazolin-5-one], the pIC50 was 8.15.

As to `CCn1c(CCCc2ccc(-c3ccc(NS(=O)(=O)c4ccc(OC)cc4)cn3)cc2)nn(Cc2ccc(C(C)(C)C)cc2)c1=O` [Example 91, 1-{[4-(tert-Butyl)phenyl]methyl}-4-ethyl-3-{3-[4-(5-{[(4-methoxyphenyl)sulfonyl]amino}(2-pyridyl))phenyl]propyl}-1,2,4-triazolin-5-one], the negative-log IC50 (pIC50) is 6.87.

With `CCn1c(CCCc2ccc(-c3ccc(C4(O)COC4)cc3)cc2)nn(Cc2ccc(C(C)(C)C)cc2)c1=O` [Example 174, 1-(4-(tert-Butyl)benzyl)-4-ethyl-3-(3-(4′-(3-hydroxyoxetan-3-yl)-[1,1′-biphenyl]-4-yl)propyl)-1H-1,2,4-triazol-5(4H)-one], the pIC50 was 6.84.

As to `CCn1c(CCCc2ccc(-c3ccc(NS(=O)(=O)c4ccc(Oc5ccc(C(F)(F)F)cn5)cc4)cn3)cc2)nn(Cc2ccc(C(C)(C)C)cc2)c1=O` [Example 77, 1-{[4-(tert-Butyl)phenyl]methyl}-4-ethyl-3-[3-(4-{5-[({4-[5-(trifluoromethyl)(2-pyridyloxy)]phenyl}sulfonyl)amino](2-pyridyl)}phenyl)propyl]-1,2,4-triazolin-5-one], the pIC50 was 6.15.

As to `CCn1c(CCCc2ccc(-c3cccc(C4(C(N)=O)CC4)c3)cc2)nn(Cc2ccc(C(C)(C)C)cc2)c1=O` [Example 14, 1-(4′-(3-(1-(4-(tert-butyl)benzyl)-4-ethyl-5-oxo-4,5-dihydro-1H-1,2,4-triazol-3-yl)propyl)-[1,1′-biphenyl]-3-yl)cyclopropanecarboxamide], the pIC50 is 6.55.

As usually defined, the pIC50 is −log10 of the IC50, conventionally taken in molar units.

The values are drawn from patent publication US9505728B2, “Triazolone compounds and uses thereof” (INCEPTION 2, INC., priority 2012, dated 2016).
